{
  "source": "paper PMC6934184",
  "about": "“Selective DNA-PKcs inhibition extends the therapeutic index of localized radiotherapy and chemotherapy” (The Journal of Clinical Investigation, 2019)",
  "target": "T1, KIT Y823D (Homo sapiens, UniProt P10721, Y823D)",
  "T1 construct": "purchased Thermo Fisher Scientific (Life Technologies) SelectScreen",
  "T1 sequence (P10721 26-976 Y823D)": "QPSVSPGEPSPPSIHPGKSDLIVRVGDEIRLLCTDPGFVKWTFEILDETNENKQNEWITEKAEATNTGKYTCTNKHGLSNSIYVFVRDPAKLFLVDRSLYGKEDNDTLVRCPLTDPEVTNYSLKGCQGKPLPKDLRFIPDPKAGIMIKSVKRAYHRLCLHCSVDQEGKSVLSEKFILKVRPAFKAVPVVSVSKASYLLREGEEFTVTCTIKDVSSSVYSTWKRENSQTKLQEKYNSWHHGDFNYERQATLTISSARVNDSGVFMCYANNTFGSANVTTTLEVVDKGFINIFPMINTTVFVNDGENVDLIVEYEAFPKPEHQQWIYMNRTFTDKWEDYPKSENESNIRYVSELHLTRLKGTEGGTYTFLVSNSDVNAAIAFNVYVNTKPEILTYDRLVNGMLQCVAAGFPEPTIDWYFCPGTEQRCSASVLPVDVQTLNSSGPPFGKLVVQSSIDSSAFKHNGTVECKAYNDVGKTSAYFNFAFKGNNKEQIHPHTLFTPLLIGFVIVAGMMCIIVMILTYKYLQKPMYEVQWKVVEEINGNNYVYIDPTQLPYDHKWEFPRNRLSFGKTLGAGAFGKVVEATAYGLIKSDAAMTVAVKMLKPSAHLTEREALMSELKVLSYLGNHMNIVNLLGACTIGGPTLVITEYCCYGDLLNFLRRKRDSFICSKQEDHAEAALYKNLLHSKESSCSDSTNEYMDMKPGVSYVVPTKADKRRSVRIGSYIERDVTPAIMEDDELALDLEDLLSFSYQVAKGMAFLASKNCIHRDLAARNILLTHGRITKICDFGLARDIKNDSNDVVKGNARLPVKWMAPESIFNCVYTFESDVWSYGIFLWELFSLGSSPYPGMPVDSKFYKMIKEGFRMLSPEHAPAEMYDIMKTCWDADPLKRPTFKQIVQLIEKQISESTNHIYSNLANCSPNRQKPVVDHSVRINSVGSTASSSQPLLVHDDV",
  "assay": "SelectScreen LanthaScreen",
  "type": "binding",
  "conditions": "read-out: % displacement",
  "outline": "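SelectScreen broad panel; activity (Z'LYTE, Adapta) plus binding formats. ATP: Km app for CSF1R Z'LYTE; 10 for CAMK1 Adapta. Readout = % per kinase.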",
  "data": [
    {"smiles": "CN(C(=O)CN1CCOCC1)c1ccc2sc3c(-c4cccc5c(=O)cc(N6CC7CCC(C6)O7)oc45)cccc3c2c1", "note": "[NU5455]", "values": [
      {"measurement": "inhibition at 1 µM", "value": 5.6, "unit": "%"}
    ]}
  ]
}
